Measured values taken from paper PMC9861744, “Polysulfone Membranes Doped with Human Neutrophil Elastase Inhibitors: Assessment of Bioactivity and Biocompatibility” (Membranes, 2023).

Molecular target: T1, Human neutrophil elastase (HNE) (Homo sapiens, UniProt P08246)
T1 construct: gene ELANE
T1 sequence (P08246 30-247): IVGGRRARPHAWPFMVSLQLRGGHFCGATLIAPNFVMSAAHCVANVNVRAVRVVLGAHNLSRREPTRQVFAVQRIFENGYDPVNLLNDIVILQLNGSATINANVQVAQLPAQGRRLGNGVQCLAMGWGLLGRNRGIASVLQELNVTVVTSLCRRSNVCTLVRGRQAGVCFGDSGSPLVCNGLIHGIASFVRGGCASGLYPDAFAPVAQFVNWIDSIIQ
Experiment: fluorometric HNE activity assay with MeO-Suc-Ala-Ala-Pro-Val-AMC, […] min preincubation, […] °C
Assay type: biochemical

Compound: CCC1(CC)C(=O)N(c2ccc(C(=O)O)cc2)C1=O [D4L-2]
- IC50: 18 nM
